Key:
sFd-35-ER = experiment: Complementation of E. coli EW11 growth by sFd-35-ER with 4-HT and other estrogen receptor modulators; type: cell-based, Escherichia coli
Procedure: Growth assay. For all growth experiments, E. coli EW11 were freshly transformed with two plasmids, one encoding the e-donor and acceptor pair (FNR and SIR) and the other encoding either a native Fd, a C42A mutant of Ml Fd that is unable to coordinate a 2Fe-2S cluster, or an engineered Fd. Starter cultures were inoculated using single colonies obtained by selecting for colonies containing both plasmids on LB-agar plates. These starter cultures were grown in deep-well 96-well plates for 18 hours at 37° C. in 1 mL of a non-selective modified M9 medium (M9c), which contained sodium phosphate, dibasic (6.8 g/L), sodium phosphate, monobasic (3 g/L), sodium chloride (0.5 g/L), ammonium chloride (1 g/L), calcium chloride (0.1 mM), magnesium sulfate (10 mM), ferric citrate (24 mg/L), p-aminobenzoic acid (2 mg/L), inositol (20 mg/L), adenine (5 mg/L), uracil (20 mg/L), tryptophan (40 mg/L), tyrosine (1.2 mg/L), and the remaining 18 amino acids (80 mg/L each). For auxotroph complementation analysis, starter cultures that had been grown to stationary phase in M9c were diluted ˜1:100 using a 96-well replicator pin into 100 μL of a selective modified M9 medium (M9sa), which is identical to M9c but lacks cysteine and methionine. […] Optical density (OD) measurements were taken every 10 minutes. To select for the Fd and e-donor/acceptor plasmids, all growth steps included chloramphenicol and streptomycin at 34 μg/mL and 100 μg/mL, respectively.
To test whether this domain-insertion strategy can be used to diversify the chemical regulation of sFd-35, the ligand-binding domain (LBD) of the human estrogen receptor (ER) was inserted after residue 35 to create sFd-35-ER (FIG. 26E).
(§1) The activity of sFd-35-ER was evaluated by expressing this protein using an aTc-inducible promoter (FIG. 31B). […] This protein was also expressed as a fusion to RFP (sFd-35-ER-RFP) to evaluate how 4-HT affects protein expression.
To evaluate how these different modulators affect sFd-35-ER ET, sFd-35-ER growth complementation was evaluated in the presence of agonists, antagonists, and an endocrine disruptor (FIG. 32D).

[1] = system: lysates derived from E. coli EW11 expressing FNR and SIR; experiment: Sulfide production assay in cell lysates (sulfidefluor-7 fluorescence); type: biochemical, Escherichia coli; settings: no Fd added
Procedure: Cell lysates. Electrocompetent E. coli EW11 were transformed with the plasmid (pSAC01) that constitutively expresses Zea mays FNR and SIR. Cells were grown to stationary phase at 37° C. and 250 rpm in 2×YTPG medium (16 g/L tryptone, 10 g/L yeast extract, 5 g/L NaCl, 3 g/L KH2PO4, 7 g/L K2HPO4, and 18 g/L glucose) containing 100 μg/mL streptomycin. Cells from overnight cultures were diluted 1:100 in fresh 2×YTPG medium containing streptomycin, grown for 2 hours at 37° C. while shaking at 250 rpm until mid-log phase, and then shifted to 30° C. and grown for an additional 4 hours. […] Protein content in lysates was quantified using Bio-Rad Protein Assay Dye Reagent Concentrate (Bio-Rad), using bovine serum albumin (NEB) as a standard.
Sulfide production assay. […] Following NADPH or protein addition, reactions were arrayed in a Corning 96 well plate at room temperature (Cost ar #3603), transferred to an Infinite m1000 Pro plate reader (Tecan), and heated to 37° C. and shaken at 250 rpm with fluorescence readings (λex=495 nm, λem=520 nm) every 15 seconds. […]
SIR activity was monitored in desalted cell lysates using sulfidefluor-7 (Lin et al., 2013), a fluorescent probe for hydrogen sulfide. […]

[2] = system: split Fd fused to estrogen receptor
split Fd fused to estrogen receptor, sequence (P03372 311-547 limits assumed): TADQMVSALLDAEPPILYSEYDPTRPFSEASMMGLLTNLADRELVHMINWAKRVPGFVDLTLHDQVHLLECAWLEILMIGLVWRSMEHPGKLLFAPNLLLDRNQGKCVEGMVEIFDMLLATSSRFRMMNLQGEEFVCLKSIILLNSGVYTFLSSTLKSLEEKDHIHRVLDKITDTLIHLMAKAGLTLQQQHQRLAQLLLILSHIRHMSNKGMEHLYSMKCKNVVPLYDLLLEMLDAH

sFd-35-ER-RFP = settings: 4-HT in ethanol compared to ethanol alone
sFd-35-ER-RFP, sequence (P03372 311-547 limits assumed): as above
Procedure: Fluorescence spectroscopy.
as §1

sFd-35-ER, sequence (P03372 311-547): as the sequence (P03372 311-547 limits assumed) above

Question: With 4-hydroxytamoxifen [4-HT] as the substance, how does the “4-HT concentration at which growth of sFd-35-ER is enhanced significantly above the C42A mutant” value (sFd-35-ER) read?
Answer: ≥ 6.25 µM

Question: What about the “Activation of sFd-35-ER ET (growth complementation)” value (sFd-35-ER) of the same substance?
Answer: activated

Question: And the “Effect of estrogen receptor modulators on complementation of E. coli EW11 by sFd-35-ER, compared to DMSO alone” value (sFd-35-ER)?
Answer: significantly enhance growth

Question: And the EC50 (sFd-35-ER; read-out: k1/2 4-HT, complementation of E. coli EW11 by sFd-35-ER)?
Answer: 2110 nM

Question: What about the “sulfide production rate on adding 4-HT alone” value [1] of the same substance?
Answer: not enhanced

Question: What about the “effect of 4-HT addition alone on rate” value [2] of the same substance?
Answer: does not affect rate

Question: And the “time after chemical addition at which the higher rate of sulfide production is detectable” value ([2]; 4-HT added at t=0)?
Answer: ≤ 1.5 min

Question: And the “Effect of 4-HT on relative fluorescence of cells expressing sFd-35-ER-RFP” value (sFd-35-ER-RFP)?
Answer: no significant increase in fluorescence
